ChEMBL document CHEMBL2176977 (J Med Chem, 2012)
Activity calls are given as the source filed them. The calls are words filed in the database; no cut-off is given here.

Assays:
[1] = target: Kappa-type opioid receptor (Cavia porcellus, UniProt P41144); test: Agonist activity at KOR in guinea pig vas deferens; type: functional, tissue-based
Mu-type opioid receptor = Mu-type opioid receptor (Cavia porcellus, UniProt P97266); test: Agonist activity at MOR in guinea pig vas deferens; type: functional, tissue-based
Mus musculus = test: Antinociceptive activity in mouse assessed as tail withdrawal latency at 100 mg/kg by 55 degC warm water test; type: functional
[2] = Agonist activity at DOR in guinea pig vas deferens; type: functional, tissue-based; conditions: Cavia porcellus
[3] = Displacement of [3H]Cl-DPDPE from DOR in guinea pig brain membrane
Rhesus monkey [4] = test: Reduction in morphine dependence in withdrawn rhesus monkey model assessed as attenuation of withdrawal effects at 0.5 mg/kg; type: functional, organism-based; set-up: dose 0.5 mg/kg; conditions: Macaca mulatta
Rhesus monkey [5] = test: Reduction in morphine dependence in withdrawn rhesus monkey model assessed as attenuation of withdrawal effects at 0.1 mg/kg; type: functional, organism-based; set-up: dose 0.1 mg/kg; conditions: Macaca mulatta

Sequence of Mu-type opioid receptor (P97266 whole entry): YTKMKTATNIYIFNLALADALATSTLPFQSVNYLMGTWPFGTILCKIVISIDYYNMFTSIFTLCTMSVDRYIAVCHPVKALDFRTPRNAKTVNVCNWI
Sequence of Kappa-type opioid receptor (P41144 whole entry): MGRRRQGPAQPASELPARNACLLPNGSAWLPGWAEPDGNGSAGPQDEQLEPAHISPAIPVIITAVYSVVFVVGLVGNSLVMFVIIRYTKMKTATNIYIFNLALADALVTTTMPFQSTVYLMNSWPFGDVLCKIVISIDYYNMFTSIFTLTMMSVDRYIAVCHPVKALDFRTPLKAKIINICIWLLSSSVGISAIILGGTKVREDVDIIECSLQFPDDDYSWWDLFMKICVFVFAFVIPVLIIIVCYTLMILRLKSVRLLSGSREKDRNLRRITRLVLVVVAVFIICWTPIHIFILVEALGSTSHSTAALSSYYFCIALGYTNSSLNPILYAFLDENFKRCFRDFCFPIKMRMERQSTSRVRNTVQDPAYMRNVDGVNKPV

CO[C@]12CC[C@@]3(C[C@@H]1[C@](C)(O)C(C)(C)C)[C@H]1Cc4ccc(O)c5c4[C@@]3(CCN1CC1CC1)[C@H]2O5 [BUPRENORPHINE]
EC50 [1]: 0.021 µM
EC50 (Mu-type opioid receptor): 0.021 µM

CN1CC[C@]23c4c5ccc(O)c4O[C@H]2[C@@H](O)C=C[C@H]3[C@H]1C5 [MORPHINE]
Activity (Mus musculus): 100%

CO[C@@]12CC[C@@]3(C[C@@H]1[C@](C)(O)C(C)(C)C)[C@H]1Cc4ccc(O)c5c4[C@@]3(CCN1CC1CC1)[C@H]2O5 [BUPRENORPHINE]
EC50 [2]: 0.021 µM
Ki [3]: 0.0016 µM

COC(=O)/C=C/C(=O)N[C@@]12CCC(=O)[C@@H]3Oc4c(O)ccc5c4[C@@]31CCN(CC1CC1)[C@@H]2C5
Activity (Rhesus monkey [4]): inactive
Activity (Rhesus monkey [5]): inactive
